Holding throughout (type): cell-based
The target in experiment [1] is T1, NaChBac (voltage-gated sodium channel from Bacillus halodurans) (Halalkalibacterium halodurans, UniProt Q9KCR8).
T1 sequence (Q9KCR8 1-274): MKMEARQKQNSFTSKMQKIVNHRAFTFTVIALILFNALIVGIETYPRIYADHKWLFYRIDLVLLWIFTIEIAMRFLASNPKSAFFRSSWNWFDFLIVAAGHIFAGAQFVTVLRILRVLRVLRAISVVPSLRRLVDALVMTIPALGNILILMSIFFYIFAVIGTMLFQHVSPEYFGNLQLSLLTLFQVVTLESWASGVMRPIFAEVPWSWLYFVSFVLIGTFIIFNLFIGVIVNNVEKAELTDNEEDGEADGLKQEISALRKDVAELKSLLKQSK

Experiment [2] has as its target T1, NaChBac (voltage-gated sodium channel from Bacillus halodurans). The source holds these as a separate data set.
Experiment [3] deals with T2, NaChBac (voltage-gated sodium channel from Bacillus halodurans) (Halalkalibacterium halodurans, UniProt Q9KCR8, T220A).
T2 sequence (Q9KCR8 1-274 T220A): T1 sequence (Q9KCR8 1-274) with T220A
In words: patch clamp in HEK-293 cells, peak current concentration response.

The results in this text go back to paper PMC3362524 (The Journal of General Physiology, 2012).

Changes are numbered by the printed parent chain. Read-outs that look alike come from different tables or passages of the source.

In experiment [1], `CCOC(=O)c1ccc(N)cc1` [benzocaine] had an IC50 of 650 µM.
On to `CCN(CC)CC(=O)Nc1c(C)cccc1C` [lidocaine], for which the values for the IC50 in experiment [2] and in experiment [3] were about 260 µM and 765 ± 76.3 µM, respectively.
`COc1ccccc1OCC(O)CN1CCN(CC(=O)Nc2c(C)cccc2C)CC1` (stereo not shown) [ranolazine] yielded an IC50 in experiment [2] of about 60 µM.
